Assays:
U-87 MG = assay: Cytotoxicity against human U87 cells assessed as reduction in cell viability after 72 hrs by RRA assay; format: functional, cell-based, U-87MG ATCC
HCT-116 [1] = assay: Cytotoxicity against human HCT-116 p53-/- cells assessed as reduction in cell viability after 72 hrs by RRA assay; format: functional, cell-based; details: HCT-116, 72 h
[2] = Resistant index, ratio of IC50 for cytotoxicity against human HCT-116 p53-/- cells to IC50 for cytotoxicity against human HCT-116 p53+/+ cells
[3] = Cytotoxicity against human U87.deltaEGFR cells assessed as reduction in cell viability after 72 hrs by RRA assay; format: functional, cell-based; details: U87MG.deltaEGFR
[4] = Selectivity index, ratio of IC50 for cytotoxicity against mouse AML12 cells to IC50 for cytotoxicity against human HepG2 cells
[5] = Cytotoxicity against mouse AML12 cells assessed as reduction in cell viability after 72 hrs by RRA assay; format: cell-based; details: AML12, 72 h
MDA-MB-231 = assay: Cytotoxicity against human MDA-MB-231 pcDNA cells assessed as reduction in cell viability after 72 hrs by RRA assay; format: functional, cell-based; details: MDA-MB-231, 72 h
HepG2 [6] = assay: Cytotoxicity against human HepG2 cells assessed as reduction in cell viability after 72 hrs by RRA assay; format: functional, cell-based; details: HepG2, 72 h
[7] = Resistant index, ratio of IC50 for cytotoxicity against human U87MG.deltaEGFR cells to IC50 for cytotoxicity against human U87 cells; format: functional
[8] = Cytotoxicity against human MDA-MB-231/BCRP cells assessed as reduction in cell viability after 72 hrs by RRA assay; format: functional, cell-based
HCT-116 [9] = assay: Cytotoxicity against human HCT-116 p53+/+ cells assessed as reduction in cell viability after 72 hrs by RRA assay; format: functional, cell-based; details: HCT-116, 72 h
ADR5000 cell line = assay: Cytotoxicity against human CEM/ADR5000 cells assessed as reduction in cell viability after 72 hrs by RRA assay; format: functional, cell-based; details: ADR5000, 72 h
[10] = Resistant index, ratio of IC50 for cytotoxicity against human MDA-MB-231/BCRP cells to IC50 for cytotoxicity against human MDA-MB-231 pcDNA cells; format: functional
[11] = Resistant index, ratio of IC50 for cytotoxicity against human CEM/ADR5000 cells to IC50 for cytotoxicity against human CCRF-CEM cells; format: functional
CCRF-CEM = assay: Cytotoxicity against human CCRF-CEM cells assessed as reduction in cell viability after 72 hrs by RRA assay; format: functional, cell-based
[12] = Resistant index, ratio of IC50 for cytotoxicity against human HCT-116 p53+/+ cells to IC50 for cytotoxicity against human HCT-116 p53-/- cells; format: functional
THP-1 = assay: Cytotoxicity against human THP-1 cells assessed as reduction in cell viability after 72 hrs by SRB assay; format: functional, cell-based; details: THP-1, 72 h
HL-60 = assay: Cytotoxicity against human HL-60 cells assessed as reduction in cell viability after 72 hrs by SRB assay; format: functional, cell-based; details: HL-60, 72 h
DU-145 = assay: Cytotoxicity against human DU-145 cells assessed as reduction in cell viability after 72 hrs by SRB assay; format: functional, cell-based; details: DU-145, 72 h
MCF7 = assay: Cytotoxicity against human MCF7 cells assessed as reduction in cell viability after 72 hrs by SRB assay; format: functional, cell-based; details: MCF7, 72 h
HepG2 [13] = assay: Cytotoxicity against human HepG2 cells assessed as reduction in cell viability after 72 hrs by SRB assay; format: functional, cell-based; details: HepG2, 72 h

Row | SMILES | IC50 (U-87 MG) | IC50 (HCT-116 [1]) | Ratio IC50 [2] | IC50 [3] | Ratio IC50 [4] | IC50 [5] | IC50 (MDA-MB-231) | IC50 (HepG2 [6]) | Ratio IC50 [7] | IC50 [8] | IC50 (HCT-116 [9]) | IC50 (ADR5000 cell line) | Ratio IC50 [10] | Ratio IC50 [11] | IC50 (CCRF-CEM) | further results
1 | C#CCOc1ccc(/C=C/C(=O)c2cccc(C)c2)cc1OC | 1.8 µM | 1.06 µM | 0.77 | 1.97 µM | 2.24 | 11.3 µM | 2.03 µM | 5.03 µM | 1.09 | 1.77 µM | 1.38 µM | 1.38 µM | 0.87 | 0.16 | 8.82 µM | –
2 | C=CCOc1ccc(/C=C\C(=O)c2ccc(OCC=C(C)C)c(CC=C)c2)cc1OC | – | – | – | – | – | – | – | – | – | – | – | – | – | – | > 50 µM | –
3 | C#CCOc1ccc(/C=C/C(=O)c2ccccc2C)cc1OC | 2.1 µM | 1.06 µM | 0.64 | 1.21 µM | 3.11 | 8.2 µM | 14.8 µM | 2.64 µM | 0.58 | 0.99 µM | 1.66 µM | 0.92 µM | 0.07 | 0.13 | 6.95 µM | –
4 | C#CCOc1ccc(/C=C/C(=O)c2ccc(C(C)C)cc2)cc1OC | 2.84 µM | 3.13 µM | – | 2.12 µM | 1.57 | 9.91 µM | 4.07 µM | 6.31 µM | 0.75 | 2.93 µM | 3.7 µM | 2.72 µM | 0.72 | 0.23 | 11.8 µM | Ratio IC50 [12]: 0.85
5 | COc1cccc2c1C(=O)c1c(O)c3c(c(O)c1C2=O)C[C@@](O)(C(=O)CO)C[C@@H]3O[C@H]1C[C@H](N)[C@H](O)[C@H](C)O1 [DOXORUBICIN] | 0.26 µM | 1.78 µM | – | 0.98 µM | – | 52.9 µM | 0.13 µM | 4.56 µM | – | 0.79 µM | – | – | – | – | 0.02 µM | –
6 | C#CCOc1ccc(/C=C/C(=O)c2ccc(OC)c(OC)c2)cc1OC | 2.86 µM | 0.32 µM | 0.16 | 1.56 µM | 1.13 | 6.75 µM | 13.6 µM | 5.98 µM | 0.55 | 1.89 µM | 2.01 µM | 1.44 µM | 0.14 | 0.17 | 8.65 µM | –
7 | C#CCOc1ccc(C(CC(=O)c2cccc(C)c2)CC(=O)c2cccc(C)c2)cc1OC | – | – | – | – | – | – | – | – | – | – | – | – | – | – | > 50 µM | –
8 | C#CCOc1ccc(C(CC(=O)c2cccc(Br)c2)CC(=O)c2cccc(Br)c2)cc1OC | – | – | – | – | – | – | – | – | – | – | – | – | – | – | > 50 µM | –
9 | C=CCOc1ccc(/C=C/C(=O)c2ccccc2C)cc1OC | – | – | – | – | – | – | – | – | – | – | – | – | – | – | – | IC50 (THP-1): 4.76 µM; IC50 (HL-60): 7.9 µM; IC50 (DU-145): 5.21 µM; IC50 (MCF7): 10.3 µM; IC50 (HepG2 [13]): 10.1 µM
10 | C#CCOc1ccc(/C=C/C(=O)c2ccn(C)c2)cc1OC | – | – | – | – | – | – | – | – | – | – | – | – | – | – | > 50 µM | –
11 | C#CCOc1ccc(/C=C/C(=O)c2ccc(CC=C(C)C)cc2)cc1OC | – | – | – | – | – | – | – | – | – | – | – | – | – | – | > 50 µM | –
12 | C=CCOc1ccc(/C=C/C(=O)c2ccc(OCC=C(C)C)c(CC=C)c2)cc1OC | – | – | – | – | – | – | – | – | – | – | – | – | – | – | > 50 µM | –
13 | C#CCOc1ccc(C=O)cc1OC | – | – | – | – | – | – | – | – | – | – | – | – | – | – | > 50 µM | –
14 | C=CCc1cc(C(C)=O)ccc1OCC=C(C)C | 12.9 µM | 14 µM | 1.31 | 12.2 µM | 1.23 | 18.1 µM | 17.9 µM | 14.7 µM | 0.94 | 11.9 µM | 10.6 µM | 5.25 µM | 0.67 | 0.32 | 16.2 µM | –
15 | C#CCOc1ccc(/C=C/C(=O)c2ccc(C)cc2)cc1OC | – | – | – | – | – | – | – | – | – | – | – | – | – | – | > 50 µM | –
16 | C#CCOc1ccc(/C=C/C(=O)c2ccc(-n3ccnc3)cc2)cc1OC | 1.41 µM | 0.67 µM | 0.86 | 1.08 µM | 2.36 | 12.7 µM | 2.03 µM | 5.39 µM | 0.77 | 1.74 µM | 0.78 µM | 1 µM | 0.86 | 0.07 | 15 µM | –
17 | C#CCOc1ccc(C(=O)/C=C/c2ccc(OCC=C)c(OC)c2)cc1CC=C | – | – | – | – | – | – | – | – | – | – | – | – | – | – | > 50 µM | –
18 | C#CCOc1ccc(/C=C/C(=O)c2cccc(OC)c2)cc1OC | 1.46 µM | 1.01 µM | 0.53 | 1.33 µM | 2.05 | 11.4 µM | 13.8 µM | 5.54 µM | 0.91 | 1.23 µM | 1.92 µM | 1.1 µM | 0.09 | 0.2 | 5.59 µM | –
19 | C#CCOc1ccc(/C=C/C(=O)c2ccc3c(c2)OCO3)cc1OC | – | – | – | – | – | – | – | – | – | – | – | – | – | – | > 50 µM | –
20 | C=CCOc1ccc(C=O)cc1OC | 7.5 µM | 8.02 µM | 1.39 | 6.97 µM | 1.46 | 15.3 µM | 15 µM | 10.5 µM | 0.93 | 7.53 µM | 5.77 µM | 3.48 µM | 0.5 | 0.25 | 14 µM | –
21 | C#CCOc1ccc(/C=C/C(=O)c2cccc(Br)c2)cc1OC | 2.59 µM | 1.9 µM | 0.66 | 4.16 µM | 1.24 | 12.5 µM | 3.5 µM | 10.1 µM | 1.61 | 3.09 µM | 2.9 µM | 2.28 µM | 0.88 | 0.15 | 15.2 µM | –
22 | C#CCOc1ccc(/C=C/C(=O)c2cccn2C)cc1OC | – | – | – | – | – | – | – | – | – | – | – | – | – | – | > 50 µM | –
23 | C#CCOc1ccc(C(C)=O)cc1CC=C | – | – | – | – | – | – | – | – | – | – | – | – | – | – | 38.2 µM | –

— ChEMBL document CHEMBL4715908, “Design, synthesis, characterization, and anticancer activity of a novel series of O-substituted chalcone derivatives” (Bioorg Med Chem Lett, 2021)
